In ChEMBL document CHEMBL3217539, “Design, synthesis and biological evaluation of new molecules inhibiting epidermal growth factor receptor threonine790 methionine790 mutant” (Medchemcomm, 2012):
Calls of active or inactive are those of the source. No cut-off for these calls is given here.

Assays:
[1] = Cytotoxicity against human HL7702 cells expressing wild type EGFR after 72 hrs by MTS assay; format: ADME, cell-based; settings: L02, 72 h
NCI-H1975 = test: cells; format: functional, cell-based; settings: Homo sapiens, NCI-H1975, 72 h
[2] = Cytotoxicity against human HCC827 cells expressing EGFR kinase E746 to A750 deletion mutant after 72 hrs by MTS assay; format: functional, cell-based; settings: HCC827, 72 h
[3] = molecular target: Epidermal growth factor receptor (Homo sapiens, UniProt P00533, T790M); test: Inhibition of EGFR kinase T790M mutant (unknown origin) after 1.5 hrs by FRET-based Z'-Lyte assay; format: protein assay
Epidermal growth factor receptor (Homo sapiens, UniProt P00533, T790M), sequence (P00533 25-1210 T790M limits assumed): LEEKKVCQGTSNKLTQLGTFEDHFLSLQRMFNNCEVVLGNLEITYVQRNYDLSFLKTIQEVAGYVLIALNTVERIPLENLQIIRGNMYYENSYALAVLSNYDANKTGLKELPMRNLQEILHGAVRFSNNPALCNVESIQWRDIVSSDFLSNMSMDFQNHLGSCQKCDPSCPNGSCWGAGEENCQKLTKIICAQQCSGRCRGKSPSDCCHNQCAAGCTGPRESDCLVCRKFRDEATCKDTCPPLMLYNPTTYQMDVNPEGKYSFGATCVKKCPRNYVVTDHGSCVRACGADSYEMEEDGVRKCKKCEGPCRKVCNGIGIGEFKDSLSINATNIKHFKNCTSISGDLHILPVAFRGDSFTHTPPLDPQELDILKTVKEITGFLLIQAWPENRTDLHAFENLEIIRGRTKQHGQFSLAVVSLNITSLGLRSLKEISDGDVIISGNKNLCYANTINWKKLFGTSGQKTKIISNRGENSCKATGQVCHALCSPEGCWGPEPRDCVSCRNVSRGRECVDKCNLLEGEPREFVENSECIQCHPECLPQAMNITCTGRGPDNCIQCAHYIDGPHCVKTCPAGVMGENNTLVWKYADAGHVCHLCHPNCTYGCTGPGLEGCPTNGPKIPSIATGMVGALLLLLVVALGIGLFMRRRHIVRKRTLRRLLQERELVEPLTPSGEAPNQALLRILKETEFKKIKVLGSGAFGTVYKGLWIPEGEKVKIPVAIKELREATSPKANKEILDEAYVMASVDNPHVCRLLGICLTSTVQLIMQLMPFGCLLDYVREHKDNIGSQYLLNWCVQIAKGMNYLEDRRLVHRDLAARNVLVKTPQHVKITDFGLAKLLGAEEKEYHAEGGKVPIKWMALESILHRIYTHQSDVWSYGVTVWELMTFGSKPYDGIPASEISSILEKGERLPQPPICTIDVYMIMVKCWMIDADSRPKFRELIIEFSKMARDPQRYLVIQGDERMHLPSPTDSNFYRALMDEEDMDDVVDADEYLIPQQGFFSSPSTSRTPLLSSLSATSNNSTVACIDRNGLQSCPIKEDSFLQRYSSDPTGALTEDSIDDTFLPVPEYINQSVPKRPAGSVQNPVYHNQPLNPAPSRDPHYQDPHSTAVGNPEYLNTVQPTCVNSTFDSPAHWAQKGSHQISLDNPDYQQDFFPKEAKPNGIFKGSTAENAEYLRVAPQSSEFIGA

[4] = molecular target: Epidermal growth factor receptor (Homo sapiens, UniProt P00533, L861Q); test: Inhibition of EGFR kinase L861Q mutant (unknown origin) after 1.5 hrs by FRET-based Z'-Lyte assay; format: protein assay
Epidermal growth factor receptor (Homo sapiens, UniProt P00533, L861Q), sequence (P00533 25-1210 L861Q limits assumed): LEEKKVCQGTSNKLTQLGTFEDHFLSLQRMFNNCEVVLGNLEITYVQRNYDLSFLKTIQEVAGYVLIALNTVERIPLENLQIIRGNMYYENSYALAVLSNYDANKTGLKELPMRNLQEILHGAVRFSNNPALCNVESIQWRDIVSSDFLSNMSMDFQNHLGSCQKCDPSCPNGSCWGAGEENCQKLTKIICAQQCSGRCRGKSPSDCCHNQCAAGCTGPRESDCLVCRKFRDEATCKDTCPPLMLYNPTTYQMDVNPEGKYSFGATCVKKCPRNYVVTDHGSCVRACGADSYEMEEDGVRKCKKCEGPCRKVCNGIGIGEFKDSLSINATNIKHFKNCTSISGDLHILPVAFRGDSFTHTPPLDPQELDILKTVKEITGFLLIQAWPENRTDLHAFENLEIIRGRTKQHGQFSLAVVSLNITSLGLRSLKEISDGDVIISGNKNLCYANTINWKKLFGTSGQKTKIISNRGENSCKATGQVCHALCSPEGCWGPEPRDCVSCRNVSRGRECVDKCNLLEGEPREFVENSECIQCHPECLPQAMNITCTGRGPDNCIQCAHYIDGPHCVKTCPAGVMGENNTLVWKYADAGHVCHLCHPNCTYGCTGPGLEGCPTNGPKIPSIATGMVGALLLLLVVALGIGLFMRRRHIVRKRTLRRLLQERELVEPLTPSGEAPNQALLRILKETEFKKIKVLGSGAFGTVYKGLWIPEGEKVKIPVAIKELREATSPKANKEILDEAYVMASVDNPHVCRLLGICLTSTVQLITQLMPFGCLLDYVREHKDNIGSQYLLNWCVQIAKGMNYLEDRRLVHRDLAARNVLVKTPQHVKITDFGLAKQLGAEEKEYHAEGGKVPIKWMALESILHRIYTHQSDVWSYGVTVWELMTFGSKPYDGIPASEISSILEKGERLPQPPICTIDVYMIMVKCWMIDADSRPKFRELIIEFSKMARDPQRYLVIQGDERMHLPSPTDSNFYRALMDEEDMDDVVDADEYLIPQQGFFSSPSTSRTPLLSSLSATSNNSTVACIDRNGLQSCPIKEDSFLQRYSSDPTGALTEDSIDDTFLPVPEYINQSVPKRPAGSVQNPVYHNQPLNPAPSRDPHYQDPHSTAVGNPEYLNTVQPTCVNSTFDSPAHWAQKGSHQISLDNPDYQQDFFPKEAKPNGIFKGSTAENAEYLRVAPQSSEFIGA

[5] = molecular target: Epidermal growth factor receptor (Homo sapiens, UniProt P00533); test: Inhibition of wild type EGFR kinase (unknown origin) after 1.5 hrs by FRET-based Z'-Lyte assay
[6] = molecular target: Epidermal growth factor receptor (Homo sapiens, UniProt P00533, L858R/T790M); test: Inhibition of EGFR kinase L858R/T790M double mutant (unknown origin) after 1.5 hrs by FRET-based Z'-Lyte assay; format: protein assay
[7] = molecular target: Epidermal growth factor receptor (Homo sapiens, UniProt P00533, L858R); test: Inhibition of EGFR kinase L858R mutant (unknown origin) after 1.5 hrs by FRET-based Z'-Lyte assay; format: protein assay
Epidermal growth factor receptor (Homo sapiens, UniProt P00533, L858R), sequence (P00533 25-1210 L858R limits assumed): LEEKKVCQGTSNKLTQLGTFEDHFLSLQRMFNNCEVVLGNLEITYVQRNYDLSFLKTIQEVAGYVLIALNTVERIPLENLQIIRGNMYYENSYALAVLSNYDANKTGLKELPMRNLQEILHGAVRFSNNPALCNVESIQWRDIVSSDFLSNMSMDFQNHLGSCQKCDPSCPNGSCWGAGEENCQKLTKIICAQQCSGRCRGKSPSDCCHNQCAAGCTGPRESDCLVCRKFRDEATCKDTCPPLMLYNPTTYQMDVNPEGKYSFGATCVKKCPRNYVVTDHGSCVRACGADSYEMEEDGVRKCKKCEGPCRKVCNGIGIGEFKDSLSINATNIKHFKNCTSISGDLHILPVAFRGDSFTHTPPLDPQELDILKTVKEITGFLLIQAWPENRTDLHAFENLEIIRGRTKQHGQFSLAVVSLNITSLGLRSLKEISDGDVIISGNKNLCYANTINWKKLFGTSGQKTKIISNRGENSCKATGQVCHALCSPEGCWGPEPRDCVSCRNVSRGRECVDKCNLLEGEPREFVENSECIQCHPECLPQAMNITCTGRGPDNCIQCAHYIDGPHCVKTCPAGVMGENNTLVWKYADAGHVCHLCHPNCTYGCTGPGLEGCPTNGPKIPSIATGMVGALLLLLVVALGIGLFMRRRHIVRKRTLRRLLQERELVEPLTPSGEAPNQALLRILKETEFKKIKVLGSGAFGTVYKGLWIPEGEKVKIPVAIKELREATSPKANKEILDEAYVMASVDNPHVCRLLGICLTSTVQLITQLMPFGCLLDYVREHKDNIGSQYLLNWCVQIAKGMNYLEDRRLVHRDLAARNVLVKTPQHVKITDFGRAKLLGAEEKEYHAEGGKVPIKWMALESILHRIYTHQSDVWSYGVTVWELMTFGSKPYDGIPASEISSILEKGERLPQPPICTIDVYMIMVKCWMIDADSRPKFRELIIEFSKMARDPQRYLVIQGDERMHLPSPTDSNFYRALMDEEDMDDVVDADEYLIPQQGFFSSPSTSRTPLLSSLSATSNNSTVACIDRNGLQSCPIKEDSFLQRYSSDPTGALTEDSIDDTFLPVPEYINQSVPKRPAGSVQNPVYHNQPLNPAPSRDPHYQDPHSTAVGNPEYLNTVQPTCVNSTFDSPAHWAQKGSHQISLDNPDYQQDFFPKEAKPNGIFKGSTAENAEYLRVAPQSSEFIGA

[8] = test system: Epidermal growth factor receptor (Homo sapiens), P00533 [L858R,T790M]; test: Inhibition of EGFR kinase L858R/T790M double mutant phosphorylation in human H1975 cells at >= 50 nM after 24 hrs by Western blotting analysis; format: cell-based
Epidermal growth factor receptor (Homo sapiens), P00533 [L858R,T790M], sequence (P00533 whole entry T790M/L858R, looked up): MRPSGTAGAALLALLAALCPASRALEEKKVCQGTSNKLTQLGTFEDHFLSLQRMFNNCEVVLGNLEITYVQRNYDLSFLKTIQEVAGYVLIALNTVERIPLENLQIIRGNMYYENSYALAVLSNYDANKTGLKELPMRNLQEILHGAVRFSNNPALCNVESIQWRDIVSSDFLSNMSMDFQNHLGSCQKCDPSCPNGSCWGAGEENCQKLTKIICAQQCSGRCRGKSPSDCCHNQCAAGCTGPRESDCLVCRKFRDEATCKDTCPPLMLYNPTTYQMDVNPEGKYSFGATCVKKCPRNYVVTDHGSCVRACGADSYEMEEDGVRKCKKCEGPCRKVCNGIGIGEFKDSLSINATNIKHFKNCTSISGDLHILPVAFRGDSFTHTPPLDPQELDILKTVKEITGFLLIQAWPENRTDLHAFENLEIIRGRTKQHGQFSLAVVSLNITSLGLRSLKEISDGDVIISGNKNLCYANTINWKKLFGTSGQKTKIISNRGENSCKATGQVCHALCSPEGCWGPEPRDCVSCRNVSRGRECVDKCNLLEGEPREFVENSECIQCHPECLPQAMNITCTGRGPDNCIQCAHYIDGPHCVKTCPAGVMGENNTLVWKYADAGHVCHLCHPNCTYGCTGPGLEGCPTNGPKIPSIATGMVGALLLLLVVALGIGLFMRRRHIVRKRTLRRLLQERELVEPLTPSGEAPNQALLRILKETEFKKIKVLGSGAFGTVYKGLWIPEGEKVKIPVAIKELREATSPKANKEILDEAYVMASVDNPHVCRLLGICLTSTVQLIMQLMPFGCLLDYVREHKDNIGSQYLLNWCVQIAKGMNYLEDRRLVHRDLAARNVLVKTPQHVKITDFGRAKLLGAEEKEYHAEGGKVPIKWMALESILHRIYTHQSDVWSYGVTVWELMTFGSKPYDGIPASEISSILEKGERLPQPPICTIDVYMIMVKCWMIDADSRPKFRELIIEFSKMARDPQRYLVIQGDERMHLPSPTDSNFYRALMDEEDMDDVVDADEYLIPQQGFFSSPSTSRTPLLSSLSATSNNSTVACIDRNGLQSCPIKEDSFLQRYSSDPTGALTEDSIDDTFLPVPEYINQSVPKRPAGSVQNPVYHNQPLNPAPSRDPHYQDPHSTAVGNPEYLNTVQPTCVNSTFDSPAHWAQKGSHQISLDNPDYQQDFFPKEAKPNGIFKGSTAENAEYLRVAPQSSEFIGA

[9] = test system: Epidermal growth factor receptor (Homo sapiens), P00533 [L858R,T790M]; test: Inhibition of EGFR kinase L858R/T790M double mutant phosphorylation in human H1975 cells after 24 hrs by Western blotting analysis; format: cell-based
[10] = Selectivity ratio of IC50 for human HL7702 cells expressing wild type EGFR to IC50 for human H1975 cells expressing EGFR kinase […]; format: ADME, cell-based; settings: read-out: Ratio IC50
[11] = Selectivity ratio of IC50 for human HL7702 cells expressing wild type EGFR to IC50 for human H1975 cells expressing EGFR kinase L858R/T790M double mutant; format: ADME, cell-based; settings: read-out: Ratio IC50

Compound | IC50 (NCI-H1975) [nM] | IC50 [3] [nM] | IC50 [4] [nM] | IC50 [5] [nM] | IC50 [6] [nM] | IC50 [7] [nM] | inhibition [8] | inhibition [9] | IC50 [1] [µM] | IC50 [2] [nM] | selectivity ratio [10] | selectivity ratio [11]
C=CC(=O)Nc1cccc(N2C(=O)C3CCCN3C(=O)c3cnc(Nc4ccc(N5CCN(C)CC5)cc4OC)nc32)c1 (stereo not given) | 31400 | > 1000 | > 1000 | > 1000 | > 1000 | > 1000 | – | – | 16.1 | 6900 | – | –
C=CC(=O)Nc1cccc(N2C(=O)CN(c3ccccc3)C(=O)c3cnc(Nc4ccc(N5CCN(C)CC5)cc4OC)nc32)c1 | 9190 | 221 | 6.86 | 6.99 | 194 | 30.7 | – | – | 1.71 | 140 | – | –
C=CC(=O)Nc1cccc(N2C(=O)C(C(C)CC)N(C)C(=O)c3cnc(Nc4ccc(N5CCN(C)CC5)cc4OC)nc32)c1 (stereo not given) | 1110 | 86.8 | 7.25 | 10.2 | 87.5 | 13.2 | – | – | 15 | 600 | – | –
C=CC(=O)Nc1cccc(N2C(=O)CN(Cc3ccccc3)C(=O)c3cnc(Nc4ccc(N5CCN(C)CC5)cc4OC)nc32)c1 | 2590 | 84.2 | 8.4 | 6.26 | 32.8 | 9.12 | – | – | 17.5 | 87 | – | –
C=CC(=O)Nc1cccc(N2C(=O)C(c3ccccc3)N(C)C(=O)c3cnc(Nc4ccc(N5CCN(C)CC5)cc4OC)nc32)c1 (stereo not given) | 5900 | 778 | 77.1 | 77.2 | > 1000 | 174 | – | – | 14.3 | 3820 | – | –
C=CC(=O)Nc1cccc(N2C(=O)CN(C)C(=O)c3cnc(Nc4ccc(N5CCN(C)CC5)cc4OC)nc32)c1 | 11700 | 110 | 22.3 | 9.14 | 52.6 | 15.1 | – | – | 44.5 | 1680 | – | –

These reach a lower IC50 (NCI-H1975). Values come first.

IC50 (NCI-H1975) [nM] | IC50 [3] [nM] | IC50 [4] [nM] | IC50 [5] [nM] | IC50 [6] [nM] | IC50 [7] [nM] | inhibition [8] | inhibition [9] | Compound | IC50 [1] [µM] | IC50 [2] [nM] | selectivity ratio [10] | selectivity ratio [11]
470 | – | – | – | – | – | – | – | C=CC(=O)Nc1cccc(N2C(=O)C(Cc3ccc(Cl)cc3)N(C)C(=O)c3cnc(Nc4ccc(N5CCN(C)CC5)cc4OC)nc32)c1 (stereo not given) | 8.73 | 300 | – | –
650 | 44 | 24.1 | 24.8 | 24.8 | 56.5 | – | – | C=CC(=O)Nc1cccc(N2C(=O)C(C(C)C)N(C)C(=O)c3cnc(Nc4ccc(N5CCN(C)CC5)cc4OC)nc32)c1 (stereo not given) | 28.2 | 69 | – | –
89 | 16.5 | 5.3 | 4.68 | 8.95 | 8.33 | Active | Dose-dependent effect | C=CC(=O)Nc1cccc(N2C(=O)C(Cc3ccccc3)N(C)C(=O)c3cnc(Nc4ccc(N5CCN(C)CC5)cc4OC)nc32)c1 (stereo not given) | 25.6 | 24 | 200 | 200
87 | – | – | – | – | – | – | – | C=CC(=O)Nc1cccc(Oc2nc(Nc3ccc(N4CCN(C)CC4)cc3OC)ncc2Cl)c1 | 9.15 | 24 | – | –
990 | 115 | 2.74 | 2.45 | 40.7 | 4.3 | – | – | C=CC(=O)Nc1cccc(N2C(=O)C3CCCCN3C(=O)c3cnc(Nc4ccc(N5CCN(C)CC5)cc4OC)nc32)c1 (stereo not given) | 23 | 68 | – | –
820 | 88.3 | 97.1 | 33.9 | 53.9 | 50 | – | – | C=CC(=O)Nc1cccc(N2C(=O)C(Cc3ccc(OC)cc3)N(C)C(=O)c3cnc(Nc4ccc(N5CCN(C)CC5)cc4OC)nc32)c1 (stereo not given) | 16.2 | 280 | – | –
69 | 17.9 | 7.57 | 5.78 | 14.1 | 24.5 | Active | Dose-dependent effect | C=CC(=O)Nc1cccc(N2C(=O)C(Cc3ccc(F)cc3)N(C)C(=O)c3cnc(Nc4ccc(N5CCN(C)CC5)cc4OC)nc32)c1 (stereo not given) | 13.7 | 71 | 200 | 200
920 | 122 | 6.02 | 22.1 | 50.9 | 41.6 | – | – | C=CC(=O)Nc1cccc(N2C(=O)C(C)N(C)C(=O)c3cnc(Nc4ccc(N5CCN(C)CC5)cc4OC)nc32)c1 (stereo not given) | 49.1 | 130 | – | –
